Measurements from patent US20080114007A1 (priority 2006, published 2008).

target: CSF-1R (Homo sapiens, UniProt P07333); assay: Peptide (non-phosphorylated) assay, fluorescence polarization competition immunoassay; type: biochemical; conditions: 0.7 nM CSF-1R, 308 μM SYEGNSYTFIDPTQ peptide, 1 mM ATP, 80 min; mean of at least three determinations; read-out: c-fms Peptide IC50
Summary of the method: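 Human CSF-1R kinase reaction started with ATP and run 80 min at room temperature, then stopped with EDTA. Phosphopeptide detected by fluorescence polarization competition using anti-phosphotyrosine antibody and PTK green tracer after 30 min. Controls used 4% DMSO, with EDTA added before reaction start for positive controls.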

Chain of CSF-1R (P07333 20-972): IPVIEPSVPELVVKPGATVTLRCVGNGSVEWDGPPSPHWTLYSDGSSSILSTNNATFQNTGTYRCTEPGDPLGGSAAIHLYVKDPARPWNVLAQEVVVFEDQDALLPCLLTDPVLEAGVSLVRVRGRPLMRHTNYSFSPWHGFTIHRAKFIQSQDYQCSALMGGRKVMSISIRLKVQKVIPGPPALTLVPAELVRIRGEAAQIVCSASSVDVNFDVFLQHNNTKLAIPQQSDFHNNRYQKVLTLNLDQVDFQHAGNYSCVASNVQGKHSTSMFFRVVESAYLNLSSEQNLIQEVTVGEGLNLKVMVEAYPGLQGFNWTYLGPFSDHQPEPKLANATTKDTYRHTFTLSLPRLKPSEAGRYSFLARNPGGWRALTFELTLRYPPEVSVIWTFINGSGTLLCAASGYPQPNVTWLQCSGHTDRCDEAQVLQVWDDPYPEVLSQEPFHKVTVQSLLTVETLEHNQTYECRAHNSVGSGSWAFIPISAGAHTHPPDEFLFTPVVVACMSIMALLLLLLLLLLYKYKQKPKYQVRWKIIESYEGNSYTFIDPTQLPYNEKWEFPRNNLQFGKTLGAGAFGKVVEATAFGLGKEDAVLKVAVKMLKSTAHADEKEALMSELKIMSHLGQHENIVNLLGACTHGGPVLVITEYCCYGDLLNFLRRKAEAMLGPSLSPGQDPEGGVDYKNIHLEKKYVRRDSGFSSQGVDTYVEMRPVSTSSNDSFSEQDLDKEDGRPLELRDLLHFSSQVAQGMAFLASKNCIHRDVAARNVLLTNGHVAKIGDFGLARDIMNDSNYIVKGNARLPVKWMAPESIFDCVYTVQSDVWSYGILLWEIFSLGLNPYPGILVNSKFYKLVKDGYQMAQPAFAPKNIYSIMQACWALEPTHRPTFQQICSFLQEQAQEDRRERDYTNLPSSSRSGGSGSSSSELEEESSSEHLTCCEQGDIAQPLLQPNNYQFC

SMILES	IC50
CC(C)ONC(=O)c1cn(-c2ccc3c(c2)CCC3)c2nc(Nc3ccc(S(=O)(=O)N(C)C)cc3)ncc2c1=O [Cpd 137, 2-(4-dimethylsulfamoyl-phenylamino)-8-indan-5-yl-5-oxo-5,8-dihydro-pyrido[2,3-d]pyrimidine-6-carboxylic acid isopropoxy-amide]	16 nM
CCONC(=O)c1cn(-c2ccc3c(c2)CCC3)c2nc(Nc3ccc(C4CCN(C)CC4)cc3)ncc2c1=O [Cpd 139, 8-indan-5-yl-2-[4-(1-methyl-piperidin-4-yl)-phenylamino]-5-oxo-5,8-dihydro-pyrido[2,3-d]pyrimidine-6-carboxylic acid ethoxy-amide]	1 nM
CONC(=O)c1cn(C2CCCCC2)c2nc(Nc3ccc(C4CCN(C)CC4)cc3)ncc2c1=O [Cpd 140, 8-cyclohexyl-2-[4-(1-methyl-piperidin-4-yl)-phenylamino]-5-oxo-5,8-dihydro-pyrido[2,3-d]pyrimidine-6-carboxylic acid methoxy-amide]	4.8 nM
CCONC(=O)c1cn(C2CCCCC2)c2nc(Nc3ccc(C4CCN(C)CC4)cc3)ncc2c1=O [Cpd 141, 8-cyclohexyl-2-[4-(1-methyl-piperidin-4-yl)-phenylamino]-5-oxo-5,8-dihydro-pyrido[2,3-d]pyrimidine-6-carboxylic acid ethoxy-amide]	1.3 nM
CCONC(=O)c1cn(C2CC2)c2nc(Nc3ccc(CCN4CCCC4)cc3)ncc2c1=O [Cpd 142, 8-cyclopropyl-5-oxo-2-[4-(2-pyrrolidin-1-yl-ethyl)-phenylamino]-5,8-dihydro-pyrido[2,3-d]pyrimidine-6-carboxylic acid ethoxy-amide]	66 nM
CC(C)ONC(=O)c1cn(C2CC2)c2nc(Nc3ccc(CCN4CCCC4)cc3)ncc2c1=O [Cpd 143, 8-cyclopropyl-5-oxo-2-[4-(2-pyrrolidin-1-yl-ethyl)-phenylamino]-5,8-dihydro-pyrido[2,3-d]pyrimidine-6-carboxylic acid isopropoxy-amide]	130 nM
CONC(=O)c1cn(-c2ccc3c(c2)CCC3)c2nc(Nc3ccc(CCN4CCNCC4)cc3)ncc2c1=O [Cpd 144, 8-indan-5-yl-5-oxo-2-[4-(2-piperazin-1-yl-ethyl)-phenylamino]-5,8-dihydro-pyrido[2,3-d]pyrimidine-6-carboxylic acid methoxy-amide]	0.4 nM
CONC(=O)c1cn(-c2ccc3c(c2)CCC3)c2nc(Nc3ccc(CCN4CCN(C(C)=O)CC4)cc3)ncc2c1=O [Cpd 145, 2-{4-[2-(4-acetyl-piperazin-1-yl)-ethyl]-phenylamino}-8-indan-5-yl-5-oxo-5,8-dihydro-pyrido[2,3-d]pyrimidine-6-carboxylic acid methoxy-amide]	1.2 nM
CONC(=O)c1cn(-c2ccc3c(c2)CCC3)c2nc(Nc3ccc(CCN4CCN(S(C)(=O)=O)CC4)cc3)ncc2c1=O [Cpd 146, 8-indan-5-yl-2-{4-[2-(4-methanesulfonyl-piperazin-1-yl)-ethyl]-phenylamino}-5-oxo-5,8-dihydro-pyrido[2,3-d]pyrimidine-6-carboxylic acid methoxy-amide]	1.2 nM
CONC(=O)c1cn(-c2ccc3c(c2)CCC3)c2nc(Nc3ccc(CCN4CCN(CC(=O)O)CC4)cc3)ncc2c1=O [Cpd 147, (4-{2-[4-(8-indan-5-yl-6-methoxycarbamoyl-5-oxo-5,8-dihydro-pyrido[2,3-d]pyrimidin-2-ylamino)-phenyl]-ethyl}-piperazin-1-yl)-acetic acid]	0.94 nM
CONC(=O)c1cn(-c2ccc3c(c2)CCC3)c2nc(Nc3ccc(CCN4CCN(C(=O)C(F)(F)F)CC4)cc3)ncc2c1=O [Cpd 148, 8-indan-5-yl-5-oxo-2-(4-{2-[4-(2,2,2-trifluoro-acetyl)-piperazin-1-yl]-ethyl}-phenylamino)-5,8-dihydro-pyrido[2,3-d]pyrimidine-6-carboxylic acid methoxy-amide]	1.2 nM
CONC(=O)c1cn(-c2ccc3c(c2)CCC3)c2nc(Nc3ccc(CCN4CCN(CC(F)(F)F)CC4)cc3)ncc2c1=O [Cpd 149, 8-indan-5-yl-5-oxo-2-(4-{2-[4-(2,2,2-trifluoro-ethyl)-piperazin-1-yl]-ethyl}-phenylamino)-5,8-dihydro-pyrido[2,3-d]pyrimidine-6-carboxylic acid methoxy-amide]	2.6 nM
CONC(=O)c1cn(-c2ccc3c(c2)CCC3)c2nc(Nc3ccc(CCN4CCN(C(=O)OC)CC4)cc3)ncc2c1=O [Cpd 150, 4-{2-[4-(8-indan-5-yl-6-methoxycarbamoyl-5-oxo-5,8-dihydro-pyrido[2,3-d]pyrimidin-2-ylamino)-phenyl]-ethyl}-piperazine-1-carboxylic acid methyl ester]	0.75 nM
CONC(=O)c1cn(-c2ccc3c(c2)CCC3)c2nc(Nc3ccc(CCCN4CCN(C)CC4)cc3)ncc2c1=O [Cpd 151, 8-indan-5-yl-2-{4-[3-(4-methylpiperazin-1-yl)-propyl]-phenylamino}-5-oxo-5,8-dihydro-pyrido[2,3-d]pyrimidine-6-carboxylic acid methoxy-amide]	1.5 nM
CONC(=O)c1cn(-c2ccc3c(c2)CCC3)c2nc(Nc3ccc(CC(=O)N4CCN(C)CC4)cc3)ncc2c1=O [Cpd 152, 8-indan-5-yl-2-{4-[2-(4-methylpiperazin-1-yl)-2-oxo-ethyl]-phenylamino}-5-oxo-5,8-dihydro-pyrido[2,3-d]pyrimidine-6-carboxylic acid methoxy-amide]	1.5 nM
CONC(=O)c1cn(-c2ccc3c(c2)CCC3)c2nc(Nc3ccc(CCC(=O)NS(C)(=O)=O)cc3)ncc2c1=O [Cpd 153, 8-indan-5-yl-2-[4-(3-methanesulfonylamino-3-oxo-propyl)-phenylamino]-5-oxo-5,8-dihydro-pyrido[2,3-d]pyrimidine-6-carboxylic acid methoxy-amide]	3.2 nM
CONC(=O)c1cn(-c2ccc3c(c2)CCC3)c2nc(Nc3ccc(S(=O)(=O)N4CCN(C)CC4)cc3)ncc2c1=O [Cpd 154, 8-indan-5-yl-2-[4-(4-methyl-piperazine-1-sulfonyl)-phenylamino]-5-oxo-5,8-dihydro-pyrido[2,3-d]pyrimidine-6-carboxylic acid methoxy-amide]	7.3 nM
CCN1CCC(c2ccc(Nc3ncc4c(=O)c(C(=O)NOC)cn(-c5ccc6c(c5)CCC6)c4n3)cc2)CC1 [Cpd 155, 2-[4-(1-ethyl-piperidin-4-yl)-phenylamino]-8-indan-5-yl-5-oxo-5,8-dihydro-pyrido[2,3-d]pyrimidine-6-carboxylic acid methoxy-amide]	0.12 nM
CCc1ccc(-n2cc(C(=O)NOC)c(=O)c3cnc(Nc4ccc(C5CCN(CC)CC5)cc4)nc32)cc1 [Cpd 157, 8-(4-ethyl-phenyl)-2-[4-(1-ethyl-piperidin-4-yl)-phenylamino]-5-oxo-5,8-dihydro-pyrido[2,3-d]pyrimidine-6-carboxylic acid methoxy-amide]	0.4 nM
CONC(=O)c1cn(-c2ccc(OC(F)(F)F)cc2)c2nc(Nc3ccc(C4CCN(C)CC4)cc3)ncc2c1=O [Cpd 159, 2-[4-(1-methylpiperidin-4-yl)-phenylamino]-5-oxo-8-(4-trifluoromethoxyphenyl)-5,8-dihydropyrido[2,3-d]pyrimidine-6-carboxylic acid methoxy-amide]	0.66 nM
CONC(=O)c1cn(-c2ccc(OC(F)(F)F)cc2)c2nc(Nc3ccc(C4CCN(CCO)CC4)cc3)ncc2c1=O [Cpd 162, 2-{4-[1-(2-hydroxyethyl)-piperidin-4-yl]-phenylamino}-5-oxo-8-(4-trifluoromethoxy-phenyl)-5,8-dihydropyrido[2,3-d]pyrimidine-6-carboxylic acid methoxy-amide]	2.1 nM
CONC(=O)c1cn(-c2ccc3c(c2)CCC3)c2nc(Nc3ccc(CCn4ccnc4)cc3)ncc2c1=O [Cpd 171, 2-[4-(2-imidazol-1-yl-ethyl)-phenylamino]-8-indan-5-yl-5-oxo-5,8-dihydro-pyrido[2,3-d]pyrimidine-6-carboxylic acid methoxy-amide]	0.76 nM
CONC(=O)c1cn(-c2ccc3c(c2)CCC3)c2nc(Nc3ccc(CCc4n[nH]c(C)n4)cc3)ncc2c1=O [Cpd 172, 8-indan-5-yl-2-{4-[2-(5-methyl-1H-[1,2,4]triazol-3-yl)-ethyl]-phenylamino}-5-oxo-5,8-dihydro-pyrido[2,3-d]pyrimidine-6-carboxylic acid methoxy-amide]	2.3 nM
CONC(=O)c1cn(-c2ccc3c(c2)CCC3)c2nc(Nc3ccc(Cc4ccncc4)cc3)ncc2c1=O [Cpd 173, 8-indan-5-yl-5-oxo-2-(4-pyridin-4-ylmethyl-phenylamino)-5,8-dihydro-pyrido[2,3-d]pyrimidine-6-carboxylic acid methoxy-amide]	0.77 nM
CONC(=O)c1cn(-c2ccc3c(c2)CCC3)c2nc(Nc3cccc(-n4cncn4)c3)ncc2c1=O [Cpd 174, 8-indan-5-yl-5-oxo-2-(3-[1,2,4]triazol-1-yl-phenylamino)-5,8-dihydro-pyrido[2,3-d]pyrimidine-6-carboxylic acid methoxy-amide]	2.1 nM
CONC(=O)c1cn(-c2ccc(OC(F)(F)F)cc2)c2nc(Nc3ccc(CCN4CCN(C)CC4)cc3)ncc2c1=O [Cpd 175, 2-{4-[2-(4-methylpiperazin-1-yl)-ethyl]-phenylamino}-5-oxo-8-(4-trifluoromethoxy-phenyl)-5,8-dihydropyrido[2,3-d]pyrimidine-6-carboxylic acid methoxy-amide]	1 nM

same assay, conditions: c-fms Peptide IC50, 0.7 nM CSF-1R, 308 μM SYEGNSYTFIDPTQ peptide, 1 mM ATP, 80 min; mean of at least three determinations

SMILES	IC50
CCc1ccc(-n2cc(C(=O)NOC)c(=O)c3cnc(Nc4ccc(C5CCN(C)CC5)cc4)nc32)cc1 [Cpd 156, 8-(4-ethyl-phenyl)-2-[4-(1-methyl-piperidin-4-yl)-phenylamino]-5-oxo-5,8-dihydro-pyrido[2,3-d]pyrimidine-6-carboxylic acid methoxy-amide]	0.3 nM
